Read-outs that look alike come from different tables or passages of the source. Residues, ends and D or L forms follow the SMILES beside them.
Legend:
K. pneumoniae ATCC 70063 [1] = tested on: K. pneumoniae ATCC 70063
Method: (§1) The temperature and pH stabilities of K11 were evaluated by the MIC assay, as mentioned above. To assess the thermal stability, Aliquots of 2 mg/mL of K11 in sterile deionized water were incubated for 1 h at 25°C, 37°C, 50°C, 70°C, and 90°C. Then, a series of 2-fold dilutions of K11 were prepared in CAMHB, 50 µL of each peptide solution was transferred to the well of a 96-well microplate. An equal volume of K. pneumoniae ATCC 70063 or K. pneumoniae ATCC BAA-1706 (10^6 CFU/mL) suspension was added, and the mixture was incubated at 37°C for 20-24 h ([Li et al., 2021]). To examine the pH stability, the pH was adjusted to range from 2.0 to 10.0 with the following 100 mM buffers: glycine-HCl buffer (pH 2.0), sodium acetate buffer (pH 4.0), sodium phosphate buffer (pH 6.0), Tris-HCl buffer (pH 8.0), and glycine-NaOH buffer (pH 10.0). Then, 2 mg/mL of K11 was prepared in buffers with different pH values (pH 2.0-10.0) and incubated for 1 h at 37°C. Afterward, the pH of the reaction solution was neutralized by HCl or NaOH to terminate the reaction. The serially diluted peptide solutions were conducted, then treated against the tested strains, and the mixtures were incubated at 37°C for 20-24 h ([Cao et al., 2015]; [Zong et al., 2016]). The MICs were observed.

[2] = tested on: K. pneumoniae ATCC BAA-1706
Method: as §1

K. pneumoniae ATCC 70063 [3] = tested on: K. pneumoniae ATCC 70063; remark: listed apart in the source
Method: The log-phase cultures were adjusted to 0.5 McFarland standard and diluted 1:100 in CAMHB to provide the density of 10^6 CFU/mL. Consequently, 50 µL of diluted bacterial suspension was added to wells containing 50 µL of peptide solution, followed by incubation for 20-24 h at 37°C. […] To evaluate MBC, a volume of 10 μL was taken from each well with no visible growth, inoculated on Mueller-Hinton agar (MHA) plates, and incubated at 37°C. The MBC was defined as the lowest concentration of antimicrobials that killed at least 99.9% of the initial inoculums ([Clinical and Laboratory Standards Institute, 1999]).

[4] = murine excision model; ref Rishi et al., 2018; cited from earlier work
Source text: The pH and thermal stability of AMPs are essential for their preparation, processing, and storage ([Zong et al., 2016]). At the same time, the stability of AMPs in serum and under physiological salt conditions is also crucial when administrating AMPs in vivo ([Rodríguez et al., 2021]).

[5] = K11 2 mg/mL in 100 mM Tris-HCl buffer pH 8.0, 1 h at 37°C, neutralized, then MIC
[6] = K11 2 mg/mL in 100 mM glycine-HCl buffer pH 2.0, 1 h at 37°C, neutralized, then MIC
[7] = K11 2 mg/mL in 100 mM glycine-NaOH buffer pH 10.0, 1 h at 37°C, neutralized, then MIC
[8] = K11 2 mg/mL in 100 mM sodium acetate buffer pH 4.0, 1 h at 37°C, neutralized, then MIC
[9] = K11 2 mg/mL in 100 mM sodium phosphate buffer pH 6.0, 1 h at 37°C, neutralized, then MIC
[10] = K11 2 mg/mL in sterile deionized water incubated 1 h at 25°C (control), then MIC in CAMHB
[11] = K11 2 mg/mL in sterile deionized water incubated 1 h at 37°C, then MIC in CAMHB
[12] = K11 2 mg/mL in sterile deionized water incubated 1 h at 50°C, then MIC in CAMHB
[13] = K11 2 mg/mL in sterile deionized water incubated 1 h at 70°C, then MIC in CAMHB
[14] = K11 2 mg/mL in sterile deionized water incubated 1 h at 90°C, then MIC in CAMHB

CC[C@H](C)[C@H](NC(=O)[C@H](Cc1ccccc1)NC(=O)[C@H](CO)NC(=O)[C@H](CCCCN)NC(=O)[C@H](Cc1c[nH]c2ccccc12)NC(=O)[C@@H](N)CCCCN)C(=O)N[C@@H](CCCCN)C(=O)N[C@@H](CCCCN)C(=O)N[C@@H](CC(C)C)C(=O)N[C@H](C(=O)N[C@@H](CCCCN)C(=O)N[C@@H](CCCCN)C(=O)N[C@@H](Cc1ccccc1)C(=O)N[C@@H](CC(C)C)C(=O)N[C@@H](Cc1c[nH]cn1)C(=O)N[C@@H](CO)C(=O)N[C@@H](C)C(=O)N[C@@H](CCCCN)C(=O)N[C@@H](CCCCN)C(=O)N[C@@H](Cc1ccccc1)C(N)=O)[C@@H](C)O [K11] (H-KWKSFIKKLTKKFLHSAKKF-NH2)
no cytotoxicity: cytotoxicity [4]
4 µg/mL: Antimicrobial activity MIC (K. pneumoniae ATCC 70063 [1]; [5]) | Antimicrobial activity MIC (K. pneumoniae ATCC 70063 [1]; [6]) | Antimicrobial activity MIC (K. pneumoniae ATCC 70063 [1]; [7]) | Antimicrobial activity MIC (K. pneumoniae ATCC 70063 [1]; [8]) | Antimicrobial activity MIC (K. pneumoniae ATCC 70063 [1]; [9]) | Antimicrobial activity MIC (K. pneumoniae ATCC 70063 [1]; [10]) | Antimicrobial activity MIC (K. pneumoniae ATCC 70063 [1]; [11]) | Antimicrobial activity MIC (K. pneumoniae ATCC 70063 [1]; [12]) | Antimicrobial activity MIC (K. pneumoniae ATCC 70063 [1]; [13]) | Antimicrobial activity MIC (K. pneumoniae ATCC 70063 [1]; [14]) | Antimicrobial activity MIC (K. pneumoniae ATCC 70063 [1]; pH 7 (control)) | MIC (K. pneumoniae ATCC 70063 [3]; broth microdilution in CAMHB, 20-24 h at 37°C) | MBC (K. pneumoniae ATCC 70063 [3]; wells with no visible growth plated on MHA, 37°C, kills at least 99.9% of inoculum)
2 µg/mL: Antimicrobial activity MIC [2, 5] | Antimicrobial activity MIC [2, 6] | Antimicrobial activity MIC [2, 7] | Antimicrobial activity MIC [2, 8] | Antimicrobial activity MIC [2, 9] | Antimicrobial activity MIC [2, 10] | Antimicrobial activity MIC [2, 11] | Antimicrobial activity MIC [2, 12] | Antimicrobial activity MIC [2, 13] | Antimicrobial activity MIC [2, 14] | Antimicrobial activity MIC ([2]; pH 7 (control))
